Like-named read-outs stand apart in the source and are kept apart here.
Tests used:
[1] = biological target: T1, CYP1B1 (Homo sapiens, UniProt Q16678); assay: Enzyme inhibition assay, CYP1B1; format: in vitro ADME; conditions: Recombinant CYP1B1; 7-ethoxyresorufin O-deethylation
T1 construct: purchased Corning Inc

[2] = biological target: T2, UGT1A6 (Homo sapiens, UniProt P19224); assay: Enzyme inhibition assay, UGT1A6; format: in vitro ADME; conditions: Recombinant UGT1A6; 4-methylumbelliferone O-glucuronidation
T2 sequence (P19224 27-532): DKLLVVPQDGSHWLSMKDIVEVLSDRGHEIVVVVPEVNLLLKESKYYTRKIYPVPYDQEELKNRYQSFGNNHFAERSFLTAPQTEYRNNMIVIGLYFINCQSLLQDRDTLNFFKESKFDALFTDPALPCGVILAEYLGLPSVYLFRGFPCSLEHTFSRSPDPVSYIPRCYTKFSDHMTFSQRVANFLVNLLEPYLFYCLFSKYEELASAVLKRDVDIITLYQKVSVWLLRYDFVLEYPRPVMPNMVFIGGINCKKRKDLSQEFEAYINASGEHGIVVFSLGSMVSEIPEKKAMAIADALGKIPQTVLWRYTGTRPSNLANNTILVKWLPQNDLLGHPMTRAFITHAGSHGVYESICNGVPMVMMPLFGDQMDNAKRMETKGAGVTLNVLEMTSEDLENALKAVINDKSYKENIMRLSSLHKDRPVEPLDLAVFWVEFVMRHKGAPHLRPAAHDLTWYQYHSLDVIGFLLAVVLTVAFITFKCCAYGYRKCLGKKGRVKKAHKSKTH

[3] = biological target: T3, UGT1A4 (Homo sapiens, UniProt P22310); assay: Enzyme inhibition assay, UGT1A4
T3 sequence (P22310 29-534): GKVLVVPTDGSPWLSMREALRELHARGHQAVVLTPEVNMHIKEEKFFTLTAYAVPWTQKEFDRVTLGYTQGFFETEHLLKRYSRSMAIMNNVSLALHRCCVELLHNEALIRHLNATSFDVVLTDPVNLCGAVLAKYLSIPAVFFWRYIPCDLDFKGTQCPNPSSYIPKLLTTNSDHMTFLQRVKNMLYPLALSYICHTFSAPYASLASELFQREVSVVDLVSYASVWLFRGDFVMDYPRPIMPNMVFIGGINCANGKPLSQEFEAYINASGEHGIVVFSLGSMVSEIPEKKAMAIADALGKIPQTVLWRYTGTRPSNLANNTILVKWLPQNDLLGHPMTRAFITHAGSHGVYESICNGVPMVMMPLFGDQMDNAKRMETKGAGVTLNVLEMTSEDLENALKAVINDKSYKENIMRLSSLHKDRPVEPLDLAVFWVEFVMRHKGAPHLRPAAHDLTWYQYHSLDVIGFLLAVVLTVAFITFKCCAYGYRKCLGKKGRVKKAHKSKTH

[4] = biological target: T4, UGT1A7 (Homo sapiens, UniProt Q9HAW7); assay: Enzyme inhibition assay, UGT1A7
T4 sequence (Q9HAW7 26-530): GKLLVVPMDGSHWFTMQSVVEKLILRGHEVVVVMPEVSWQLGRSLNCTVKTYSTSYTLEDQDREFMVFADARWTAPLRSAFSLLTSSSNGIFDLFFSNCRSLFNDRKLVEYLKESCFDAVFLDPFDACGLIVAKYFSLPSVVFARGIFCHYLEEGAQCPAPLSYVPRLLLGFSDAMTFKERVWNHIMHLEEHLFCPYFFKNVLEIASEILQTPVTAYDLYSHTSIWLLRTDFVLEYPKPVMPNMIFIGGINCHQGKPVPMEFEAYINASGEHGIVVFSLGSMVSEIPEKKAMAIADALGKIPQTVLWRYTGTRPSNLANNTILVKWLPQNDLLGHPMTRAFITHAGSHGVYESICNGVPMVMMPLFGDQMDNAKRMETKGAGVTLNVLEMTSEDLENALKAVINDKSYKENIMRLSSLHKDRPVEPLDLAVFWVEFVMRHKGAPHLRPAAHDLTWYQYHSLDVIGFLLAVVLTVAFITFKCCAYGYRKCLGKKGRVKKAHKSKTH

[5] = biological target: T5, UGT1A8 (Homo sapiens, UniProt Q9HAW9); assay: Enzyme inhibition assay, UGT1A8
T5 sequence (Q9HAW9 26-530): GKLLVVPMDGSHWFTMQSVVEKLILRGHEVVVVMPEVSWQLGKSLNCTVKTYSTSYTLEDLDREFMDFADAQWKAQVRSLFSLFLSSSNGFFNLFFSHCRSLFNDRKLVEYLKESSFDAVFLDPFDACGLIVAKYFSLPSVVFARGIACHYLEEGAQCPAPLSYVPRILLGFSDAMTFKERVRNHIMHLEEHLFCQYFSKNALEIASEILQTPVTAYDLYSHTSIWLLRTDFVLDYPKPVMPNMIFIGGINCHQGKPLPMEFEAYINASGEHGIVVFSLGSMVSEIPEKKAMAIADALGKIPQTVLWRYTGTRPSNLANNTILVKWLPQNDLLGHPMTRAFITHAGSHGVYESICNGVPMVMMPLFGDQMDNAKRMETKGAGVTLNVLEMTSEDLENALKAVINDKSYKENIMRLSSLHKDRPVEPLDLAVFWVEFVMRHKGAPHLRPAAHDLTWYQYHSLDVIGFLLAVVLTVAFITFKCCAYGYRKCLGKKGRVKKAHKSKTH

[6] = system: HLM (Phase 1); assay: Reaction phenotyping, HLM with NADPH; format: in vitro ADME, human
[7] = biological target: T6, CYP2B6 (Homo sapiens, UniProt P20813); assay: Enzyme inhibition assay, CYP2B6; format: in vitro ADME
T6 construct: tissue Xenotech LLC; host or cells: human liver microsomes, mixed-gender 50 donor pool

[8] = system: primary human hepatocytes; assay: Cytotoxicity in CYP induction studies; format: cell-based; conditions: 303 nM (100 ng/mL) in primary human hepatocytes
[9] = system: CYP3A4 mRNA; design: method as in PMID 23965226; conditions: 10 μM DPV, colorectal tissue from three human donors; cited from earlier work
[10] = system: CYP1A2 mRNA; design: method as in PMID 23965226; conditions: 10 μM DPV, colorectal tissue from three human donors; cited from earlier work
[11] = system: CYP2B6 mRNA; design: method as in PMID 23965226; conditions: 10 μM DPV, colorectal tissue from three human donors; cited from earlier work
[12] = biological target: CYP2C19 (Homo sapiens, UniProt P33261); assay: Enzyme inhibition assay, CYP2C19
[13] = system: HLM (Phase 2); assay: Reaction phenotyping, HLM with UDPGA; conditions: HLM (Phase 2)

T1 sequence (Q16678 whole entry): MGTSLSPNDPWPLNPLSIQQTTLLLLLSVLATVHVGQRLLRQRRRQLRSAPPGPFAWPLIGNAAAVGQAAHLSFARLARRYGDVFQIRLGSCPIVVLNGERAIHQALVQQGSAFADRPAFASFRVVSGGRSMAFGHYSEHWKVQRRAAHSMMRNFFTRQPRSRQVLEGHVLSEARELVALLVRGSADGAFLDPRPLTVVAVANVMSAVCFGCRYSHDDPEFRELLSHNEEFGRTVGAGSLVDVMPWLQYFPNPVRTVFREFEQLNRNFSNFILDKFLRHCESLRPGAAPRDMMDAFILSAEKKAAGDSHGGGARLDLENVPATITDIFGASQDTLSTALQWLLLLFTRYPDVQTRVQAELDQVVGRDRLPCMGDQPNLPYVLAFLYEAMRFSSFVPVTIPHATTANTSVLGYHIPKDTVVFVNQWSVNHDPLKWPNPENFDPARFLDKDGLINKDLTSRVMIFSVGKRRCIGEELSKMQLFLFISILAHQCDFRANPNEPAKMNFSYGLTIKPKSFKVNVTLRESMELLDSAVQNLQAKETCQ
Sequence of CYP2C19 (P33261 whole entry): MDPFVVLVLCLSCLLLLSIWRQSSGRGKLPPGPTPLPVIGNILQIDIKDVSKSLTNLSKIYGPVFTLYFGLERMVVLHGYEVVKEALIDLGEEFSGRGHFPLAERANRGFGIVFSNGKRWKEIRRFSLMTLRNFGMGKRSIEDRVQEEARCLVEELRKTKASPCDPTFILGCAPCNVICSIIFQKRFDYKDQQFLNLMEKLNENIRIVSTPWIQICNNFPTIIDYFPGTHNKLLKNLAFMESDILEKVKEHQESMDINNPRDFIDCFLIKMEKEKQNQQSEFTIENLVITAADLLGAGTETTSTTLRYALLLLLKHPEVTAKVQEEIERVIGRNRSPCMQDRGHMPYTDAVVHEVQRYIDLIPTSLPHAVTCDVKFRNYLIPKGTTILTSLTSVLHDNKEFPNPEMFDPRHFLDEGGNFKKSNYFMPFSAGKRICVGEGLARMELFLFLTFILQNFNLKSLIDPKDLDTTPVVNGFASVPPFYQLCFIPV
T6 sequence (P20813 whole entry): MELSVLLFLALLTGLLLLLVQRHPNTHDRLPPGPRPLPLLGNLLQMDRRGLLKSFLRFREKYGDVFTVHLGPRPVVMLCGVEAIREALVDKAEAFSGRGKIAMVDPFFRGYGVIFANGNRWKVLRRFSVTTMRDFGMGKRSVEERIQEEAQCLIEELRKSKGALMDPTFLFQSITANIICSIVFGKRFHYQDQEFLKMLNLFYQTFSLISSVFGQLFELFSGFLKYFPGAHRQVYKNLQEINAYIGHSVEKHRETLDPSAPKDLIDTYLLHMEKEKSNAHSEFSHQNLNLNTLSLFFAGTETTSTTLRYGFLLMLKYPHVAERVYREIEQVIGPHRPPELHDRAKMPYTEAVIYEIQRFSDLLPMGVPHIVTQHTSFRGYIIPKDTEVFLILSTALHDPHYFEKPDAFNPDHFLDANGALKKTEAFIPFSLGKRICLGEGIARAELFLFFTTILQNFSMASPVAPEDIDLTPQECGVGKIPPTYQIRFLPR

Row | SMILES | IC50 [1] | IC50 [2] | IC50 [3] | IC50 [4] | IC50 ([5]; Recombinant UGT1A8, 4-methylumbelliferone O-glucuronidation) | Emax at 45 min ([5]; human, recombinant UGT1A8, probe 4-methylumbelliferone (2 µM), glucuronidation) | % DPV Remaining at 60 min without MIC ([6]; 10 μM DPV) | % DPV Remaining at 60 min with MIC ([6]; 10 μM DPV and 30 μM MIC) | IC50 [7] | cytotoxicity [8] | CYP3A4 mRNA change [9] | CYP1A2 mRNA change [10] | CYP2B6 mRNA change [11] | IC50 [5] | IC50 [12] | % DPV Remaining at 60 min without MIC ([13]; 10 μM DPV) | % DPV Remaining at 60 min with MIC ([13]; 10 μM DPV and 30 μM MIC)
1 | Clc1ccc(COC(Cn2ccnc2)c2ccc(Cl)cc2Cl)c(Cl)c1 (stereo not drawn) [MIC, miconazole] | 0.47 µM | 17.1 µM | 26.5 µM | > 30 µM | Apparent activation with MIC | 173% | – | – | – | – | – | – | – | – | – | – | –
2 | Cc1cc(C)c(Nc2ccnc(Nc3ccc(C#N)cc3)n2)c(C)c1 [DPV, Dapivirine] | 1.55 µM | 19.6 µM | 9.45 µM | 24.2 µM | – | – | 37.14% | 88.39% | 10.1 µM | no cytotoxicity observed | induction in two donors | induction in one donor | inhibition in one donor | > 30 µM | > 30 µM | 97.15% | 95.59%

Reference: paper PMC8706783 (Pharmaceutics, 2021)
